Literature values in patent US9133185B2, “Heteroaryl derivatives” (CHIESI FARMACEUTICI S.P.A., priority 2013, dated 2015).

Key:
[1] = test system: smoking model of COPD in mice
[2] = COPD patients, 500 mg once daily, given over 12 months
[3] = COPD patients, oral, given over 4 weeks
[4] = patients with severe disease who have frequent exacerbations and mucus hypersecretion

## O=C(Nc1c(Cl)cncc1Cl)c1ccc(OC(F)F)c(OCC2CC2)c1 [Roflumilast, roflumilast]
COPD patients; [2]
  lung function: improved lung function in COPD patients to a small extent
  reducing exacerbations or improving quality of life: little effect
COPD patients; [3]
  CXCL8 concentrations in sputum: significantly reduces
  reduction of the numbers of neutrophils in sputum: 36%
COPD patients; [4]
  improvement of FEV 1: approximately 50 mL
  reduction of exacerbation: about 15%
[1]
  lung inflammation and emphysema: inhibits lung inflammation and emphysema
